In US12139520B2 (priority 2020, dated 2024):
Bridge positions count the residues as written; N and C are the ends. Square brackets hold non-standard residues; d marks the D form. Peptide text beside a SMILES is read from it. Hyp = O=C(O)[C@@H]1C[C@@H](O)CN1

Assay: Physical stability of peptide analogues (Thioflavin T fibrillation)
Assay type: physicochemical
Conditions: maximum ThT signal normalized between hAMY maximum and buffer background; 40° C., shaking, four days; pH 7 per table title
Procedure: General Protocols for Determination of Physical Stability of Peptide Analogues
Peptides were dissolved in buffers (50 mM sodium acetate at pH 4 or 50 mM sodium phosphate at pH 7) and incubated for one hour. The samples were then divided into two replicates of 80 μl in a black 384 well plate (μ-clear, Greiner Bio-One) and mixed with Thioflavin T (ThT) to a final concentration of 4 μM. The plate was sealed and placed in a plate reader (CLARIOstar, BMG) where the temperature was set at 40° C. during the course of the experiment. The samples were further stressed by shaking the plate at 700 rpm (linear) for five minutes before every measurement. The fluorescence was measured every 10 min for four days by exciting the ThT at 450 nm and measuring the emission at 480 nm. For each peptide, the ThT signal over time was smoothened using Local Polynomial Regression fitting (LOESS) as implemented in the statistical programming environment R. For the smoothened data, the maximum ThT signal was normalized in percent between the maximum ThT signal for hAMY and the buffer background.

Max ThT signal (%) | SMILES
2.600% | CC[C@H](C)[C@H](NC(=O)[C@H](CCC(N)=O)NC(=O)[C@H](Cc1c[nH]cn1)NC(=O)[C@H](C)NC(=O)[C@H](CC(C)C)NC(=O)[C@H](CCCCN)NC(=O)[C@H](CCC(N)=O)NC(=O)[C@@H](NC(=O)[C@@H](NC(=O)[C@@H]1CSSC[C@H](NC(=O)CN)C(=O)N[C@@H](CCCNC(=N)N)C(=O)N[C@@H](Cc2ccccc2)C(=O)NCC(=O)N[C@@H]([C@@H](C)O)C(=O)N1)[C@@H](C)O)C(C)C)C(=O)N[C@@H](Cc1ccc(O)cc1)C(=O)N[C@@H](CCC(N)=O)C(=O)N[C@@H](Cc1ccccc1)C(=O)N[C@H](C(=O)N[C@@H](CC(=O)O)C(=O)N[C@@H](CCCCN)C(=O)N[C@@H](CC(=O)O)C(=O)N[C@@H](CCCCN)C(=O)N[C@@H](CC(=O)O)C(=O)N[C@@H](CC(N)=O)C(=O)N[C@H](C(=O)N[C@@H](C)C(=O)N1CCC[C@H]1C(=O)N[C@@H](CCCNC(=N)N)C(=O)N[C@@H](CO)C(=O)N[C@@H](CCCCN)C(=O)N[C@H](C(=O)N[C@@H](CO)C(=O)N1CCC[C@H]1C(=O)N[C@@H](CCC(N)=O)C(=O)NCC(=O)N[C@@H](Cc1ccc(O)cc1)C(N)=O)[C@@H](C)CC)C(C)C)[C@@H](C)O [compound 1]
3.200% | CC[C@H](C)[C@H](NC(=O)[C@H](CCC(N)=O)NC(=O)[C@H](Cc1c[nH]cn1)NC(=O)[C@H](C)NC(=O)[C@H](CC(C)C)NC(=O)[C@H](CCCNC(=N)N)NC(=O)[C@H](CCC(N)=O)NC(=O)[C@@H](NC(=O)[C@@H](NC(=O)[C@@H]1CSSC[C@H](NC(=O)CN)C(=O)N[C@@H](CCCNC(=N)N)C(=O)N[C@@H](Cc2ccccc2)C(=O)NCC(=O)N[C@@H]([C@@H](C)O)C(=O)N1)[C@@H](C)O)C(C)C)C(=O)N[C@@H](Cc1ccc(O)cc1)C(=O)N[C@@H](CCC(N)=O)C(=O)N[C@@H](Cc1ccccc1)C(=O)N[C@H](C(=O)N[C@@H](CC(=O)O)C(=O)N[C@@H](CCCCN)C(=O)N[C@@H](CC(=O)O)C(=O)N[C@@H](CCCCN)C(=O)N[C@@H](CC(=O)O)C(=O)N[C@@H](CC(N)=O)C(=O)N[C@H](C(=O)N[C@@H](C)C(=O)N1CCC[C@H]1C(=O)N[C@@H](CCCNC(=N)N)C(=O)N[C@@H](CO)C(=O)N[C@@H](CCCCN)C(=O)N[C@H](C(=O)N[C@@H](CO)C(=O)N1CCC[C@H]1C(=O)N[C@@H](CC(N)=O)C(=O)NCC(=O)N1C[C@H](O)C[C@H]1C(N)=O)C(C)C)C(C)C)[C@@H](C)O [compound 175] (H-GCRFGTCTVQRLAHQIYQFTDKDKDNVAPRSKVSPNG[Hyp]-NH2; disulfide 2-7)

Further lines, the compound ahead of its results:

SMILES | Max ThT signal (%)
CC[C@H](C)[C@H](NC(=O)[C@H](CCC(N)=O)NC(=O)[C@H](Cc1c[nH]cn1)NC(=O)[C@H](C)NC(=O)[C@H](CC(C)C)NC(=O)[C@H](CCCNC(=N)N)NC(=O)[C@H](CCC(N)=O)NC(=O)[C@@H](NC(=O)[C@@H](NC(=O)[C@@H]1CSSC[C@H](NC(=O)[C@@H](N)CCCCN)C(=O)N[C@@H](CC(N)=O)C(=O)N[C@@H]([C@@H](C)O)C(=O)N[C@@H](C)C(=O)N[C@@H]([C@@H](C)O)C(=O)N1)[C@@H](C)O)C(C)C)C(=O)N[C@@H](Cc1ccc(O)cc1)C(=O)N[C@@H](CCC(N)=O)C(=O)N[C@@H](Cc1ccccc1)C(=O)N[C@H](C(=O)N[C@@H](CCCCN)C(=O)N[C@@H](CC(=O)O)C(=O)N[C@@H](CCCCN)C(=O)N[C@@H](CC(=O)O)C(=O)N[C@@H](CC(N)=O)C(=O)N[C@H](C(=O)N[C@@H](C)C(=O)N1CCC[C@H]1C(=O)N1CCC[C@H]1C(=O)N[C@H](C(=O)N[C@@H](CC(N)=O)C(=O)N[C@H](C(=O)NCC(=O)N[C@@H](CO)C(=O)N[C@@H](CC(N)=O)C(=O)NCC(=O)N1C[C@H](O)C[C@H]1C(N)=O)C(C)C)[C@@H](C)O)C(C)C)[C@@H](C)O [compound 29] (H-KCNTATCTVQRLAHQIYQFTKDKDNVAPPTNVGSNG[Hyp]-NH2; disulfide 2-7; N-terminus assumed) | 9.300%
CC[C@H](C)[C@@H]1NC(=O)[C@H](CCCNC(=N)N)NC(=O)[C@@H](NC(=O)CN)CSSC[C@@H](C(=O)N[C@H](C(=O)N[C@H](C(=O)N[C@@H](CCC(N)=O)C(=O)N[C@@H](CCCNC(=N)N)C(=O)N[C@@H](CC(C)C)C(=O)N[C@@H](C)C(=O)N[C@@H](Cc2c[nH]cn2)C(=O)N[C@@H](CCC(N)=O)C(=O)N[C@H](C(=O)N[C@@H](Cc2ccc(O)cc2)C(=O)N[C@@H](CCC(N)=O)C(=O)N[C@@H](Cc2ccccc2)C(=O)N[C@H](C(=O)N[C@@H](CC(N)=O)C(=O)N[C@@H](CCCCN)C(=O)N[C@@H](CC(=O)O)C(=O)N[C@@H](CCCCN)C(=O)N[C@@H](CC(=O)O)C(=O)N[C@@H](CC(N)=O)C(=O)N[C@H](C(=O)N[C@@H](C)C(=O)N2CCC[C@H]2C(=O)N[C@@H](CCCNC(=N)N)C(=O)N[C@@H](CO)C(=O)N[C@@H](CCCCN)C(=O)N[C@H](C(=O)N[C@@H](CO)C(=O)N2CCC[C@H]2C(=O)N[C@@H](CCC(N)=O)C(=O)N[C@H](C(=O)N2C[C@H](O)C[C@H]2C(N)=O)[C@@H](C)O)[C@@H](C)CC)C(C)C)[C@@H](C)O)[C@@H](C)CC)C(C)C)[C@@H](C)O)NC(=O)[C@H]([C@@H](C)O)NC(=O)CNC1=O [compound 198] (H-GCRIGTCTVQRLAHQIYQFTNKDKDNVAPRSKISPQT[Hyp]-NH2; disulfide 2-7; N-terminus assumed) | 4.200%
CC[C@H](C)[C@H](NC(=O)[C@H](CCC(N)=O)NC(=O)[C@H](Cc1c[nH]cn1)NC(=O)[C@H](C)NC(=O)[C@H](CC(C)C)NC(=O)[C@H](CCCNC(=N)N)NC(=O)[C@H](CCC(N)=O)NC(=O)[C@@H](NC(=O)[C@@H](NC(=O)[C@@H]1CSSC[C@H](NC(=O)CN)C(=O)N[C@@H](CCCNC(=N)N)C(=O)N[C@@H]([C@@H](C)O)C(=O)NCC(=O)N[C@@H]([C@@H](C)O)C(=O)N1)[C@@H](C)O)C(C)C)C(=O)N[C@@H](Cc1ccc(O)cc1)C(=O)N[C@@H](CCC(N)=O)C(=O)N[C@@H](Cc1ccccc1)C(=O)N[C@H](C(=O)N[C@@H](CC(=O)O)C(=O)N[C@@H](CCCCN)C(=O)N[C@@H](CC(=O)O)C(=O)N[C@@H](CCCCN)C(=O)N[C@@H](CC(=O)O)C(=O)N[C@@H](CC(N)=O)C(=O)N[C@H](C(=O)N[C@@H](C)C(=O)N1CCC[C@H]1C(=O)N[C@@H](CCCNC(=N)N)C(=O)N[C@H](C(=O)N[C@@H](CCCCN)C(=O)N[C@H](C(=O)N[C@@H](CO)C(=O)N1CCC[C@H]1C(=O)N[C@@H](CCC(N)=O)C(=O)NCC(=O)N1C[C@H](O)C[C@H]1C(N)=O)[C@@H](C)CC)[C@@H](C)O)C(C)C)[C@@H](C)O [compound 189] (H-GCRTGTCTVQRLAHQIYQFTDKDKDNVAPRTKISPQG[Hyp]-NH2; disulfide 2-7; N-terminus assumed) | 6.000%
